Measured values published in publication PMC11726150, “Pre‐ADMET studies of 5‐(3′,4′‐dihydroxyphenyl)‐γ‐valerolactone, the bioactive intestinal metabolite of proanthocyanidins” (Archiv Der Pharmazie, 2024).
Read-outs that look alike come from different tables or passages of the source.

Legend:
[1] = Metabolic stability assay with human liver microsomes; format: in vitro ADME
Procedure: HLMs and S9 fractions were used to determine, respectively, phases I and II metabolism of VL. A mixture of the activating cofactors (NADP^+ and UDPGA) and enzymes (G6PO4 and G6PDH) were used to stimulate the metabolism; in the microsome assay UDPGA was not needed. The final concentrations of cofactors NADPH and UDPGA were 1 mM each, while for the enzymes G6PO4 and G6PDH were 10 mM and 2 U/mL, respectively. The phosphate buffer was prepared as a 100 mM solution, pH 7.4, containing 10 mM magnesium chloride in deionized water. Testosterone and 7‐hydroxycoumarin were used as positive controls for phases I and II metabolism, and stock reference solutions of controls and VL were prepared, respectively, at 5 mM and 10 mM concentration in DMSO, and then diluted to a final test concentration of 10 µM. S9 fraction or microsome, final concentration 1 mg/mL, were preincubated with a test compound for 5 min at 37°C in the phosphate buffer, pH 7.4, and then the reactions were initiated by adding the cofactor mixture. A negative control sample was prepared replacing the reaction enzymes with water in the presence of a reaction mixture and test compound VL. […] T ½ was calculated using the interpolating point method using the nonlinear fit option of GraphPad Prism 8, while intrinsic clearance CL'int (mL/min/kg) was calculated as written in Equation (4) and as reported previously:^[ [23] ^] […]

Caco2 monolayers = assay: In vitro transport study across 21‐day Caco2 monolayers; format: in vitro ADME, human
Procedure: Caco2 cells between passage numbers 42–50 and MDCK cells between passage numbers 21–26 were used for transport studies; the assay was conducted as reported by Volpe^[ [33] ^] with slight modifications. Transport experiments were performed in 12‐well Transwell plates. Caco2 cells were seeded at a density of 60,000 cells/cm^2 and grown for 21 days, with change of media every 3 days, while MDCK cells were seeded at a density of 70,000 cells/cm^2 and grown for 5 days, changing the medium daily. The physiological and morphological formation of a confluent monolayer was evaluated by measuring the TEER value: Caco2 monolayers became confluent 1 week after seeding with TEER values greater than 450 Ω/cm^2, while MDCK monolayers became confluent 24 h after seeding with TEER values greater than 90 Ω/cm^2. Phenol red and serum‐free DMEM/F12 medium was used as transport buffer. For bidirectional transport, VL (50 μM) and control compound (propranolol and paclitaxel, 10 μM) were added to the apical side to determine apical to basolateral transport (A–B; absorptive direction) and to the basal side to determine basolateral to apical transport (B–A; secretory direction). The volume of the apical and basolateral chambers was 0.5 and 1.5 mL, respectively. Aliquots of 120 μL were taken from the basolateral (for A–B transport) or the apical (for B–A transport) chamber at 30, 60, 90, and 120 min. An equal volume was replaced with a transport buffer at every time point. At the beginning and at the end of the experiment, an aliquot was also taken from the apical or basolateral chamber for analysis of the drug. To determine the integrity of monolayers, TEER values were measured before and after the experiment. In addition, at the end of the experiment cells were collected and lysed to evaluate the compound intake. Briefly, cells were washed twice with cold PBS and 200 µL of cold MeOH was added to detach and lysate the cells; subsequently, cells were collected into lo‐bind Eppendorf and sonicated in ice for 10 min, then centrifuged for 15 min at 4°C at 14,000 rpm (Eppendorf Centrifuge 5430 R). The supernatant was collected and used for further analysis.
The apparent permeability P app (cm/s) of compounds was calculated from the following equation (Equation 1), while P app (cm/s) of the metabolites was calculated from the equation (Equation 2): (1) Papp=dQ/dt×1/C×1/A.
Equation (1) for calculating P app (cm/s) of tested reference compounds. (2) Papp=Metabolic cleareance/A.
Equation (2) for calculating P app (cm/s) of compound metabolites.
with Metabolic cleareance=Rate of metabolism/C and where dQ/dt is the rate of transport, C is the initial concentration in the donor compartment, and A is the surface area of the filter. To quantify the rate of transport, cumulative amounts of test compounds were plotted against time (min).
Efflux ratio was calculated using the following equation (Equation 3)^[ [48] ^]: (3) Efflux ratio=Papp(B−A)/Papp(A−B).

MTT cell viability assay [2] = format: cell-based, canine; conditions: dog, Wt-MDCK cells, 1.5–50 µM, 6 h exposure, read-out: cells remaining viable
Procedure: (§1) The effect of test samples on cell viability was measured using an MTT assay. Briefly, exponentially growing 2 × 10^4 cells/200 μL were seeded in 96‐well plates and allowed to grow until reaching their differentiation state. Cells were treated with different concentrations of VL (50–1.6 µM) and positive control camptothecin (30–1 μM) serially diluted in serum‐free medium. After incubation, 10 μL of MTT dye (5 mg/mL stock in PBS) was added to each well, and plates were additionally incubated for 4 h. Further, media were aspirated, and cells were washed with 100 μL of phosphate buffer saline. The formazan blue crystals formed by viable cells were dissolved in 150 μL of DMSO, and the absorbance was measured at 580 nm on a Bio‐Tek, Synergy HT Multi‐Mode, plate reader. The % decrease in viability of sample‐treated cells was calculated compared with vehicle‐treated cells.^[ [46] ^]

Caco2 cells = assay: MTT cell viability assay; format: cell-based, human; conditions: Caco2, 1.5–50 µM, up to 24 and 48 h
Procedure: as §1

HepG2 cells = assay: MTT cell viability assay; format: cell-based, human; conditions: HepG2, 1.5–50 µM, up to 24 and 48 h
Procedure: as §1

MTT cell viability assay [3] = format: cell-based, human; conditions: human, Caco2 cells; Caco2, 1.5–50 µM, 6 h exposure; read-out: cells remaining viable
Procedure: as §1

LS174T cells = assay: MTT cell viability assay; format: cell-based, human; conditions: 1.5–50 µM, up to 24 and 48 h
Procedure: as §1

half‐life t ½ ([1]; HLM 1 mg/mL, 10 µM): 23.084 min
half-life at 10 µM ([1]; human, liver microsomes, pH 7.4, HLM 1 mg/mL, read-out: half‐life t ½): 23.1 min
VL in the donor compartment at the end of the experiment (Caco2 monolayers; Caco2, 50 µM, 120 min): no longer detectable
conversion of VL to sulfate (Caco2 monolayers; after 30 min): 100%
SMILES: O=C1CCC(Cc2ccc(O)c(O)c2)O1 (stereo not drawn) [VL, 5‐(3′,4′‐dihydroxyphenyl)‐γ‐valerolactone]
viability at 6 h (MTT cell viability assay [2]): > 90%
effect on cell viability (Caco2 cells): no significant effect
effect on cell viability (HepG2 cells): no significant effect
viability at 6 h (MTT cell viability assay [3]): > 90%
effect on cell viability (LS174T cells): no significant effect
